Values after ≈ are worked out from the molar mass of the structure shown. Some results are limits rather than exact numbers.

The assay has as its system Mycobacterium tuberculosis. As to the kind of experiment: Antibacterial activity multi-drug resistant Mycobacterium tuberculosis H37Rv ATCC 35822 assessed as inhibition of bacterial growth incubated for 2 days by CLSI protocol based broth microdilution method. The class given is functional. Particulars: H37Rv ATCC 35822, 48 h, time 2 day. In general terms: Broth dilution looks for growth in wells or tubes with falling amounts of substance.
What is called MIC is the least concentration at which growth counts as inhibited. With `COc1cc(CN2CCN(C(=O)c3cccc(Cl)c3)CC2)nc2ccc(F)cc12`, the MIC was above 64 µg/mL.

Take `COc1cc(CN2CCN(C(=O)c3cccc(F)c3)CC2)nc2ccc(F)cc12`: the MIC was above 64 µg/mL.

In the case of `COc1cc(CN2CCN(S(=O)(=O)c3ccc(Cl)cc3Cl)CC2)nc2ccc(F)cc12`, the MIC was above 64 µg/mL.

Turning to `COc1ccc(C(=O)N2CCN(Cc3cc(OC)c4cc(F)ccc4n3)CC2)cc1`, the MIC was above 64 µg/mL.

On to `COc1cc(CN2CCN(S(=O)(=O)c3ccc(C)cc3)CC2)nc2ccc(F)cc12`, for which the MIC is above 64 µg/mL.

Consider `COc1ccc2nc(CN3CCN(S(=O)(=O)c4ccc(NC(C)=O)cc4)CC3)cc(OC)c2c1`, for which the MIC is above 64 µg/mL.

Regarding `COc1cc(CN2CCN(C(=O)c3ccccc3F)CC2)nc2ccc(F)cc12`, the MIC is above 64 µg/mL.

For `COc1ccc2nc(CN3CCN(S(=O)(=O)c4ccccc4C(F)(F)F)CC3)cc(OC)c2c1`, the MIC was above 64 µg/mL.

As for `COc1ccc2nc(CN3CCN(S(=O)(=O)c4cccs4)CC3)cc(OC)c2c1`, the MIC is above 64 µg/mL.

`COc1ccc2nc(CN3CCN(C(=O)c4ccccc4F)CC3)cc(OC)c2c1`: the MIC was above 64 µg/mL.

As for `COc1ccc2nc(CN3CCN(S(=O)(=O)c4c(C)cc(C)cc4C)CC3)cc(OC)c2c1`, the MIC was above 64 µg/mL.

With `CNS(=O)(=O)N1CCN(Cc2cc(OC)c3cc(OC)ccc3n2)CC1`, the MIC was above 64 µg/mL.

For `COc1cccc(C(=O)N2CCN(Cc3cc(OC)c4cc(OC)ccc4n3)CC2)c1`, the MIC is above 64 µg/mL.

`COc1ccc2nc(CN3CCN(C(=O)c4ccccc4OC)CC3)cc(OC)c2c1`: the MIC was above 64 µg/mL.

Regarding `COc1cc(CN2CCN(S(=O)(=O)c3ccccc3F)CC2)nc2ccc(F)cc12`, the MIC was 4 µg/mL (≈ 9.23 µM).

As to `COc1ccc2nc(CN3CCN(C(=O)c4ccc(Cl)c(Cl)c4)CC3)cc(OC)c2c1`, the MIC was above 64 µg/mL.

Consider `COc1ccc2nc(CN3CCN(S(=O)(=O)c4cccc5ccccc45)CC3)cc(OC)c2c1`, for which the MIC was above 64 µg/mL.

Consider `COc1ccc2nc(CN3CCN(C(=O)C4CCC4)CC3)cc(OC)c2c1`, for which the MIC was above 64 µg/mL.

With `COc1ccc(S(=O)(=O)N2CCN(Cc3cc(OC)c4cc(F)ccc4n3)CC2)cc1`, the MIC is above 64 µg/mL.

For the compound `COc1cc(CN2CCN(S(=O)(=O)c3ccc(NC(C)=O)cc3)CC2)nc2ccc(F)cc12`, the MIC was above 64 µg/mL.

As for `COc1ccc2nc(CN3CCN(C(=O)c4c(Cl)cccc4Cl)CC3)cc(OC)c2c1`, the MIC is above 64 µg/mL.

For the compound `COc1cc(CN2CCN(C(=O)c3ccccc3C)CC2)nc2ccc(F)cc12`, the MIC was above 64 µg/mL.

Turning to `COc1ccc2nc(CN3CCN(S(=O)(=O)c4ccccc4F)CC3)cc(OC)c2c1`, the MIC is 0.5 µg/mL (≈ 1.12 µM).

`COc1ccc2nc(CN3CCN(S(=O)(=O)c4c(F)c(F)c(F)c(F)c4F)CC3)cc(OC)c2c1`: the MIC is above 64 µg/mL.

For the compound `COc1ccc2nc(CN3CCN(S(=O)(=O)c4ccc(F)cc4)CC3)cc(OC)c2c1`, the MIC is above 64 µg/mL.

As for `COc1ccc2nc(CN3CCN(C(=O)c4ccc(Cl)cc4Cl)CC3)cc(OC)c2c1`, the MIC is above 64 µg/mL.

As to `C[C@H]1COc2c(N3CCN(C)CC3)c(F)cc3c(=O)c(C(=O)O)cn1c23.C[C@H]1COc2c(N3CCN(C)CC3)c(F)cc3c(=O)c(C(=O)O)cn1c23.O` [LEVOFLOXACIN], the MIC stood at 4 µg/mL.

`CO[C@H]1/C=C/O[C@@]2(C)Oc3c(C)c(O)c4c(O)c(c(/C=N/N5CCN(C)CC5)c(O)c4c3C2=O)NC(=O)/C(C)=C\C=C\[C@H](C)[C@H](O)[C@@H](C)[C@@H](O)[C@@H](C)[C@H](OC(C)=O)[C@@H]1C` [RIFAMPIN]: the MIC is above 64 µg/mL.

Values taken from ChEMBL document CHEMBL5230166, “Novel quinoline-piperazine hybrids: the design, synthesis and evaluation of antibacterial and antituberculosis properties” (RSC Med Chem, 2023).
